What was measured:
patients = patients treated with gemfibrozil; cited from earlier work
male LDL R-\-mice = assay: Western diet-induced diabetes in LDL R-/- mice; format: in vivo; details: LDL R-/- mice on Western diet, 4 weeks treatment
Source text: To test the effect of Dunaliella on Diabetes, male LDL R-\-mice (n=30) were fed a Western diet (42% calories from fat) in order to induce Diabetes. After 4 weeks of Western diet feeding, the mice were divided into 6 groups (n=5 in each group) and were fed Western diet fortified by rosiglitazone (0.02% of the diet, weight/weight), crude Dunaliella powder (8% of the diet, weight/weight) or 9-cis retinoic acid (24 nmol/mouse×day). The treatments lasted 4 weeks.
The 8% Dunaliella powder provided ˜1.5 nmol 9-cis retinoic acid/mouse×day. This calculated amount is based on conversion of β-carotene to vitamin A (27 molecules provide 1 molecule of vitamin A and on the ratio of retinoic acid to vitamin A which is about 1 molecule of retinoic acid to 300 molecules of retinol, retinal and retinoic acid).
The following groups were included:
1. Control, Western diet alone. (Control)
2. 9-cis retinoic acid (RA)
4. Dunaliella powder 8% (Dun)

| Structure (SMILES) | reduction of the rate of coronary events (patients) [%] | plasma glucose levels (male LDL R-\-mice) | plasma insulin levels (male LDL R-\-mice) |
| --- | --- | --- | --- |
| Cc1ccc(C)c(OCCCC(C)(C)C(=O)O)c1 [gemfibrozil] | 22 |  |  |
| CC1=C(/C=C/C(C)=C\C=C\C(C)=C\C(=O)O)C(C)(C)CCC1 [9-cis retinoic acid] |  | did not affect | did not affect |
